Data taken from patent US20110118337A1, “Method of Using Compositions Comprising MIR-192 and/or MIR-215 for the Treatment of Cancer” (Merck Sharp & Dohme Corp., priority 2008, published 2011).

How the values were obtained:
HCT116 DICER^ex5 cells = assay: Gene expression profiling (Agilent 44K microarray) after transfection of miR-192/miR-215 duplex mimetics; type: cell-based, human; conditions: 24 hr; 10 nM; vs mock-transfected
Method: Synthetic duplex mimetics of miR-192 and miR-215 (sequences shown in TABLE 1) or a control target Luciferase siRNA (Luc), shown in TABLE 1, were transfected (10 nM final concentration) into HCT116 DICER^ex5, a human colorectal cancer cell line with hypomorphic DICER function (Cummins, J. M., et al., PNAS 103:3687-3692 (2006)). The transfections were carried out using Lipofectamine RNAiMax (Invitrogen) per the manufacturer's instructions. At 10 and 24 hours post-transfection, total RNA was extracted and gene expression profiling was carried out with the Agilent 44K microarray in comparison to RNA isolated from mock-transfected HCT116DICER^ex5 cells. Microarray analysis was carried out as described in Linsley, P. S., et al., Mol Cell Biol 27:2240-2252 (2007). Gene expression data analysis was done either with the Rosetta Resolver gene expression analysis software (Version 7.1 Rosetta Biosoftware).

[1] = test system: 3′ UTRs of the 18 candidate genes in U-2-OS cells; assay: 3′ UTR luciferase reporter analysis; type: cell-based; conditions: 10 nM, 24 hours post-transfection
Text: In order to test whether miR-192 is regulating these genes through seed sequence-specific recognition of binding sites within their 3' UTRs, a series of reporter constructs were generated containing the entire natural 3' UTRs of the 18 candidate genes (BCL2, CDC7, CUL5, DLG5, DTL, ERCC3, HOXA10, HRH1, LMNB2, MAD2L1, MCM10, MIS12, MPHOSPH1, PIM1, PRPF38A, […]1, SEPT10 and SMARCB1) inserted downstream of a luciferase open reading frame (SwitchGear Genomics) to create 3' UTR luciferase reporter plasmids. U-2-OS cells were transfected first with 10 nM miR-192 or 10 nM miR-192 mutant, and subsequently transfected 4 to 6 hours later with these 3' UTR reporter plasmids. A renilla luciferase expression plasmid from dual luciferase system (Promega) was used as an internal control. Luciferase activity was measured at 24 hours post-transfection, and quantified relative to renilla luciferase activity.

**Q.** Which “BRCA1 transcript fold change” value (HCT116 DICER^ex5 cells) does the source give for “miR-192: Synthetic duplex mimetic of miR-192, guide CUGACCUAUGAAUUGACAGCC (SEQ ID NO:1), passenger SEQ ID NO:7 (sense CUGUCAAUUCAUCGGUCUGAU; listed as RNA, chemistry not given here; listed as Homo sapiens)” here?
**A.** Its value is −1.35 fold change.

**Q.** And the “CDC7 transcript fold change” value (HCT116 DICER^ex5 cells)?
**A.** The value was −2.05 fold change.

**Q.** And the “CDC14A transcript fold change” value (HCT116 DICER^ex5 cells)?
**A.** The value was −1.16 fold change.

**Q.** What about the “CDC73 transcript fold change” value (HCT116 DICER^ex5 cells) of the same substance?
**A.** The value was −1.17 fold change.

**Q.** What about the “CRK transcript fold change” value (HCT116 DICER^ex5 cells) of the same substance?
**A.** Its value is −1.44 fold change.

**Q.** And the “CTCF transcript fold change” value (HCT116 DICER^ex5 cells)?
**A.** Its value is −1.78 fold change.

**Q.** What about the “CUL5 transcript fold change” value (HCT116 DICER^ex5 cells) of the same substance?
**A.** The value was −1.35 fold change.

**Q.** What about the “DBF4B transcript fold change” value (HCT116 DICER^ex5 cells) of the same substance?
**A.** Its value is −1.33 fold change.

**Q.** What about the “DEK transcript fold change” value (HCT116 DICER^ex5 cells) of the same substance?
**A.** Its value is −1.47 fold change.

**Q.** What about the “DLG5 transcript fold change” value (HCT116 DICER^ex5 cells) of the same substance?
**A.** The value was −2.22 fold change.

**Q.** What about the “DTL transcript fold change” value (HCT116 DICER^ex5 cells) of the same substance?
**A.** The value was −1.38 fold change.

**Q.** What about the “EMP1 transcript fold change” value (HCT116 DICER^ex5 cells) of the same substance?
**A.** The value was −1.66 fold change.

**Q.** And the “ERCC3 transcript fold change” value (HCT116 DICER^ex5 cells)?
**A.** Its value is −1.6 fold change.

**Q.** What about the “EXTL2 transcript fold change” value (HCT116 DICER^ex5 cells) of the same substance?
**A.** The value was −1.5 fold change.

**Q.** What about the “FGF2 transcript fold change” value (HCT116 DICER^ex5 cells) of the same substance?
**A.** Its value is −1.83 fold change.

**Q.** What about the “HOXA10 transcript fold change” value (HCT116 DICER^ex5 cells) of the same substance?
**A.** The value was −2.3 fold change.

**Q.** What about the “HRH1 transcript fold change” value (HCT116 DICER^ex5 cells) of the same substance?
**A.** Its value is −1.77 fold change.

**Q.** And the “KIF14 transcript fold change” value (HCT116 DICER^ex5 cells)?
**A.** Its value is −1.42 fold change.

**Q.** And the “KIF23 transcript fold change” value (HCT116 DICER^ex5 cells)?
**A.** The value was −1.34 fold change.

**Q.** What about the “LMNB2 transcript fold change” value (HCT116 DICER^ex5 cells) of the same substance?
**A.** Its value is −1.82 fold change.

**Q.** And the “MACF1 transcript fold change” value (HCT116 DICER^ex5 cells)?
**A.** Its value is −1.64 fold change.

**Q.** What about the “MAD2L transcript fold change” value (HCT116 DICER^ex5 cells) of the same substance?
**A.** The value was −1.53 fold change.

**Q.** And the “MCM3 transcript fold change” value (HCT116 DICER^ex5 cells)?
**A.** The value was −1.91 fold change.

**Q.** What about the “MCM6 transcript fold change” value (HCT116 DICER^ex5 cells) of the same substance?
**A.** Its value is −1.33 fold change.

**Q.** What about the “MCM10 transcript fold change” value (HCT116 DICER^ex5 cells) of the same substance?
**A.** The value was −2.37 fold change.

**Q.** And the “MIS12 transcript fold change” value (HCT116 DICER^ex5 cells)?
**A.** Its value is −1.73 fold change.

**Q.** What about the “MKI67 transcript fold change” value (HCT116 DICER^ex5 cells) of the same substance?
**A.** Its value is −1.4 fold change.

**Q.** What about the “MPHOSPH1 transcript fold change” value (HCT116 DICER^ex5 cells) of the same substance?
**A.** The value was −1.87 fold change.

**Q.** What about the “MTSS1 transcript fold change” value (HCT116 DICER^ex5 cells) of the same substance?
**A.** Its value is −1.47 fold change.

**Q.** What about the “NBN transcript fold change” value (HCT116 DICER^ex5 cells) of the same substance?
**A.** Its value is −1.27 fold change.

**Q.** What about the “NCAPH transcript fold change” value (HCT116 DICER^ex5 cells) of the same substance?
**A.** Its value is −1.32 fold change.

**Q.** And the “NEK1 transcript fold change” value (HCT116 DICER^ex5 cells)?
**A.** Its value is −1.47 fold change.

**Q.** What about the “NFIB transcript fold change” value (HCT116 DICER^ex5 cells) of the same substance?
**A.** The value was 1.82 fold change.

**Q.** What about the “NFYA transcript fold change” value (HCT116 DICER^ex5 cells) of the same substance?
**A.** Its value is −1.35 fold change.

**Q.** And the “NIN transcript fold change” value (HCT116 DICER^ex5 cells)?
**A.** The value was 1.38 fold change.

**Q.** And the “PAFAH1B1 transcript fold change” value (HCT116 DICER^ex5 cells)?
**A.** The value was −2.22 fold change.

**Q.** And the “PAPD5 transcript fold change” value (HCT116 DICER^ex5 cells)?
**A.** The value was −1.44 fold change.

**Q.** And the “PFTK1 transcript fold change” value (HCT116 DICER^ex5 cells)?
**A.** The value was −1.33 fold change.

**Q.** And the “PIM1 transcript fold change” value (HCT116 DICER^ex5 cells)?
**A.** Its value is −1.73 fold change.

**Q.** What about the “PLAU transcript fold change” value (HCT116 DICER^ex5 cells) of the same substance?
**A.** The value was −1.95 fold change.

**Q.** What about the “PLS3 transcript fold change” value (HCT116 DICER^ex5 cells) of the same substance?
**A.** Its value is −1.57 fold change.

**Q.** What about the “POLQ transcript fold change” value (HCT116 DICER^ex5 cells) of the same substance?
**A.** Its value is −1.18 fold change.

**Q.** What about the “POLS transcript fold change” value (HCT116 DICER^ex5 cells) of the same substance?
**A.** Its value is −1.39 fold change.

**Q.** What about the “PPP1CA transcript fold change” value (HCT116 DICER^ex5 cells) of the same substance?
**A.** The value was −2.18 fold change.

**Q.** What about the “PRPF38A transcript fold change” value (HCT116 DICER^ex5 cells) of the same substance?
**A.** The value was −1.17 fold change.

**Q.** What about the “RACGAP1 transcript fold change” value (HCT116 DICER^ex5 cells) of the same substance?
**A.** Its value is −1.9 fold change.

**Q.** What about the “RAD1 transcript fold change” value (HCT116 DICER^ex5 cells) of the same substance?
**A.** The value was −1.37 fold change.

**Q.** And the “RAD21 transcript fold change” value (HCT116 DICER^ex5 cells)?
**A.** The value was −1.36 fold change.

**Q.** What about the “RAD51 transcript fold change” value (HCT116 DICER^ex5 cells) of the same substance?
**A.** The value was −1.23 fold change.

**Q.** And the “RAP1GAP transcript fold change” value (HCT116 DICER^ex5 cells)?
**A.** Its value is −1.43 fold change.

**Q.** What about the “RB1 transcript fold change” value (HCT116 DICER^ex5 cells) of the same substance?
**A.** The value was −1.45 fold change.

**Q.** What about the “SEPT10 transcript fold change” value (HCT116 DICER^ex5 cells) of the same substance?
**A.** The value was −1.98 fold change.

**Q.** And the “SERTAD2 transcript fold change” value (HCT116 DICER^ex5 cells)?
**A.** The value was −1.31 fold change.

**Q.** What about the “SH3BP4 transcript fold change” value (HCT116 DICER^ex5 cells) of the same substance?
**A.** Its value is −1.9 fold change.

**Q.** And the “SMARCB1 transcript fold change” value (HCT116 DICER^ex5 cells)?
**A.** Its value is −1.3 fold change.

**Q.** What about the “TDG transcript fold change” value (HCT116 DICER^ex5 cells) of the same substance?
**A.** The value was −1.52 fold change.

**Q.** And the “TDP1 transcript fold change” value (HCT116 DICER^ex5 cells)?
**A.** The value was −1.66 fold change.

**Q.** What about the “TOP1 transcript fold change” value (HCT116 DICER^ex5 cells) of the same substance?
**A.** Its value is −1.66 fold change.

**Q.** And the “TUBGCP3 transcript fold change” value (HCT116 DICER^ex5 cells)?
**A.** The value was −1.52 fold change.

**Q.** What about the “USP1 transcript fold change” value (HCT116 DICER^ex5 cells) of the same substance?
**A.** Its value is −1.35 fold change.

**Q.** And the “UVRAG transcript fold change” value (HCT116 DICER^ex5 cells)?
**A.** The value was −1.38 fold change.

**Q.** And the “regulation of 3′ UTR luciferase reporters of the 18 genes” value [1]?
**A.** The value was “regulated”.
